Measured values published in patent US5436229A, “Bisulfite adducts of arginine aldehydes” (Eli Lilly and Company, priority 1994, dated 1995).
Non-standard residues stand in square brackets, D forms with d. Residues, ends and D or L forms follow the SMILES beside them. dNMeCha = CN[C@H](CC1CCCCC1)C(=O)O

Experiments:
[1] = test system: human plasma; experiment: Human plasma anticoagulation, prothrombin time (PT); format: biochemical
How it was run: (§1)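 Compounds added across a wide concentration range to human plasma; APTT, PT and TT clotting times measured on a coagulation instrument, bovine thrombin used for plasma assays. Concentration doubling clotting time estimated by linear extrapolation.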

[2] = test system: human plasma; experiment: Human plasma anticoagulation, thrombin time (TT); format: biochemical
How it was run: as §1

[3] = Epimerization inhibition by sodium bisulfite (compound of Example 75); format: physicochemical; settings: pH 7.4, 50° C.
Method: A 55.55 mM aqueous sodium phosphate solution (adjusted to pH 7.4 with sodium hydroxide) was mixed with an aqueous 27.77 mM sodium bisulfite/27.77 mM sodium phosphate solution (adjusted to pH 7.4 with sodium hydroxide) and water in various ratios to produce buffers containing 0, 5.55, 11.11, 16.66, 22.22 and 27.77 mM sodium bisulfite. A 0.9 ml aliquot of each sodium bisulfite/phosphate buffer was added to separate 13×100 mm culture tubes and placed in a 50° C. Tempblok® heater for 15 minutes. To each culture tube 0.1 ml of a 1 mg/ml aqueous solution of the compound of Example 75 was added and mixed well. […] These samples were allowed to react for 30 minutes at 60° C. and were then evaporated to dryness with nitrogen in a 55° C. N-Evap. The residue was dissolved in 1 ml of methanol and transferred to Varian Si BondElut SPE columns (1 ml) previously conditioned with 2 ml of water then 2 ml of methanol. The dissolved samples were pulled through slowly with a slight vaccum, and the sorbent layer was then washed with 2-1 ml volumes of methanol. The SPE columns were then dried at full vacuum (~25 in. Hg) then 500 μl of 500 mM potassium chloride was passed through the SPE columns. The compounds of interest were eluted with 300 μl of methanol/500 mM potassium chloride (1:1, v/v) into 12×75 mm culture tubes. These eluates were analyzed by the HPLC system described below.
The mobile phase was acetonitrile/methanol/500 mM ammonium acetate pH 7 (3:3:4, v/v) pumped at 1 ml/min with a Shimadzu LC-10AD pump. The column was a Zorbax SB-C8 150×4.6 mm maintained at 40° C. with a Jones Chromatography 7960 column heater. Fifty microliter injections were made with a Waters WISP 712 autosampler. Detection was accomplished with a Kratos 783 UV detector at 360 nm. The percentage of the DLD isomer was calculated using the peak areas of the DLL and DLD isomers in the chromatograms and the following equation: [formula]

[4] = test system: human plasma; experiment: Human plasma anticoagulation, activated partial thromboplastin time (APTT); format: biochemical
How it was run: as §1

In the case of `CN[C@H](CC1CCCCC1)C(=O)N1CCC[C@H]1C(=O)N[C@H](C=O)CCCNC(=N)N.Cl` [Example 75, N-methyl-D-cyclohexylalanyl-L-Prolinyl-L-Arginine Aldehyde Hydrochloride] (H-[dNMeCha]-Pro-Arg-aldehyde), the “2 × Clotting time PT” value [1] is reported as 720 ng/mL, the “2 × Clotting time TT” value [2] is reported as 18 ng/mL and the “Percentage of DLD Isomer” value ([3]; sodium bisulfite 0 mM, 0 hr) is reported as 7.33%. The “Percentage of DLD Isomer” value ([3]; sodium bisulfite 0 mM, 0.5 hr) was 31.91%, the “Percentage of DLD Isomer” value ([3]; sodium bisulfite 0 mM, 2 hr) was 48.95% and the “Percentage of DLD Isomer” value ([3]; sodium bisulfite 0 mM, 3 hr) was 50.21%. The “Percentage of DLD Isomer” value ([3]; sodium bisulfite 0 mM, 4 hr) was 50.27%, the “Percentage of DLD Isomer” value ([3]; sodium bisulfite 0 mM, 6 hr) was 50.03% and the “Percentage of DLD Isomer” value ([3]; sodium bisulfite 0 mM, 8 hr) was 50.15%. For the same compound, the “Percentage of DLD Isomer” value ([3]; sodium bisulfite 0 mM, […]) was 44.72%, the “Percentage of DLD Isomer” value ([3]; sodium bisulfite 5 mM, 0 hr) was 7.35% and the “Percentage of DLD Isomer” value ([3]; sodium bisulfite 5 mM, 0.5 hr) was 14.64%. For the same compound, the “Percentage of DLD Isomer” value ([3]; sodium bisulfite 5 mM, 2 hr) was 34.64%, the “Percentage of DLD Isomer” value ([3]; sodium bisulfite 5 mM, 3 hr) was 42.75% and the “Percentage of DLD Isomer” value ([3]; sodium bisulfite 5 mM, 4 hr) was 47.21%. The “Percentage of DLD Isomer” value ([3]; sodium bisulfite 5 mM, 6 hr) was 48.75%, the “Percentage of DLD Isomer” value ([3]; sodium bisulfite 5 mM, 8 hr) was 49.61% and the “Percentage of DLD Isomer” value ([3]; sodium bisulfite 5 mM, […]) was 24.74%. For the same compound, the “Percentage of DLD Isomer” value ([3]; sodium bisulfite 10 mM, 0 hr) was 7.54%, the “Percentage of DLD Isomer” value ([3]; sodium bisulfite 10 mM, 0.5 hr) was 10.79% and the “Percentage of DLD Isomer” value ([3]; sodium bisulfite 10 mM, 2 hr) was 25.55%. The “Percentage of DLD Isomer” value ([3]; sodium bisulfite 10 mM, 3 hr) was 35.08%, the “Percentage of DLD Isomer” value ([3]; sodium bisulfite 10 mM, 4 hr) was 41.99% and the “Percentage of DLD Isomer” value ([3]; sodium bisulfite 10 mM, 6 hr) was 50.73%. The “Percentage of DLD Isomer” value ([3]; sodium bisulfite 10 mM, 8 hr) was 51.60%, the “Percentage of DLD Isomer” value ([3]; sodium bisulfite 10 mM, […]) was 17.72% and the “Percentage of DLD Isomer” value ([3]; sodium bisulfite 15 mM, 0 hr) was 8.37%. The “Percentage of DLD Isomer” value ([3]; sodium bisulfite 15 mM, 0.5 hr) was 10.31%, the “Percentage of DLD Isomer” value ([3]; sodium bisulfite 15 mM, 2 hr) was 21.41% and the “Percentage of DLD Isomer” value ([3]; sodium bisulfite 15 mM, 3 hr) was 28.54%. For the same compound, the “Percentage of DLD Isomer” value ([3]; sodium bisulfite 15 mM, 4 hr) was 35.26%, the “Percentage of DLD Isomer” value ([3]; sodium bisulfite 15 mM, 6 hr) was 46.26% and the “Percentage of DLD Isomer” value ([3]; sodium bisulfite 15 mM, 8 hr) was 50.58%. The “Percentage of DLD Isomer” value ([3]; sodium bisulfite 15 mM, […]) was 15.19%, the “Percentage of DLD Isomer” value ([3]; sodium bisulfite 20 mM, 0 hr) was 7.65% and the “Percentage of DLD Isomer” value ([3]; sodium bisulfite 20 mM, 0.5 hr) was 9.90%. For the same compound, the “Percentage of DLD Isomer” value ([3]; sodium bisulfite 20 mM, 2 hr) was 17.28%, the “Percentage of DLD Isomer” value ([3]; sodium bisulfite 20 mM, 3 hr) was 23.70% and the “Percentage of DLD Isomer” value ([3]; sodium bisulfite 20 mM, 4 hr) was 29.34%. The “Percentage of DLD Isomer” value ([3]; sodium bisulfite 20 mM, 6 hr) was 43.32%, the “Percentage of DLD Isomer” value ([3]; sodium bisulfite 20 mM, 8 hr) was 48.73% and the “Percentage of DLD Isomer” value ([3]; sodium bisulfite 20 mM, […]) was 12.88%. The “Percentage of DLD Isomer” value ([3]; sodium bisulfite 25 mM, 0 hr) was 8.16%, the “Percentage of DLD Isomer” value ([3]; sodium bisulfite 25 mM, 0.5 hr) was 9.47% and the “Percentage of DLD Isomer” value ([3]; sodium bisulfite 25 mM, 2 hr) was 14.78%. The “Percentage of DLD Isomer” value ([3]; sodium bisulfite 25 mM, 3 hr) was 18.66%, the “Percentage of DLD Isomer” value ([3]; sodium bisulfite 25 mM, 4 hr) was 24.34% and the “Percentage of DLD Isomer” value ([3]; sodium bisulfite 25 mM, 6 hr) was 37.60%. For the same compound, the “Percentage of DLD Isomer” value ([3]; sodium bisulfite 25 mM, 8 hr) was 46.26%, the “Percentage of DLD Isomer” value ([3]; sodium bisulfite 25 mM, […]) was 11.42% and the “2 × Clotting time APTT” value [4] was 420 ng/mL.
